According to PubChem BioAssay AID1918944 (Molecular Pharmacology Branch, DTP, NCI, 2023):
Several values for one entry are separate records, joined by “and”; a condition that tells them apart may be missing. Equal values may be shown once. Blank lines part the entries; values can stand above or below the compound they belong to. Activity calls are given as the source filed them. The calls were made as follows: active = viability on the fitted dose curve at most 10% of control; inactive = the rest.

System: 786-0 complex spheroid viability
Assay: Anticancer human tumor 786-0 cell line growth inhibition;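 also: spheroids exposed to agents for seven days before readout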
Conditions: for viability, T/C: stronger effect = lower value
Source text: Multicellular complex tumor spheroid response to LSD1 Inhibitor Iadademstat in combination with a variety of drugs and investigational agents in selected tumor cell lines
The current study was undertaken to assess response to LSD1 inhibitors in combination with standard-of-care drugs and investigational agents in solid tumor complex spheroid models as well as in the K-562 leukemia. Complex spheroids include a stromal component modeled by human endothelial cells (HUVEC) and fibroblasts modeled by human mesenchymal stem cells (MSCs). The concentration ranges selected for each drug and investigational agent were based upon clinically achievable concentrations if the clinical Cmax of the agent was known.
Compounds. The drugs and investigational agents used in this study are listed on Table 1. All of the agents used, including staurosporine (NSC755774) and gemcitabine (NSC613327), were obtained from the Developmental Therapeutics Program, NCI. FDA-approved anticancer drugs are available from the NCI at http://dtp.nci.nih.gov/branches/dscb/oncology_drugset_explanation.html. Drugs and investigational agents were >95% pure by proton nuclear magnetic resonance (NMR) and liquid chromatography/mass spectrometry (LC/MS). Stock solutions were prepared at 400x in DMSO, stored at -70 degrees C, and diluted in fresh medium prior to their use. The final concentration of DMSO in cell culture wells never exceeded 0.25% (v/v). The FDA-approved anticancer drug set is available from the Developmental Therapeutics Program at https://dtp.cancer.gov/organization/dscb/obtaining/available_plates.htm. All drugs and investigational agents were tested over a range starting from a high concentration at or near the clinical Cmax and decreasing in half-log increments. If the clinical Cmax for an agent had not been determined, the highest concentration tested was 10 microM.
Cell Lines. The patient-derived cancer cell (PDC) lines: 292921-168-R-J2-PDC, K24384-001-R-PDC, and 521955-158-R2-J5-PDC pancreatic carcinomas, 556581-035-R-J1 ovarian carcinoma, 324938-238-R-J1-PDC, 855422-203-R-J1-PDC and 883617-216-R-J1-PDC urothelial bladder carcinomas, 743489-274-T-PDC renal cell carcinoma, 138582-R-J1 Merkel cell tumor, K60290-347-R-J1 and K57222-313-R-J1-PDC glioblastomas, 653999-131-R-J2-PDC, LG0703-F948-PDC, and 349418-098-R-PDC non-small cell lung carcinomas, 885512-296-R-J2-PDC, 171881-019-R-J1-PDC breast carcinomas and 186277-243-T-J2-PDC and 233499-124-R-J2-PDC colon carcinomas were obtained from the NCI Patient-Derived Models Repository (PDMR, https://pdmr.cancer.gov). The established cell lines NCI/ADR-RES (RRID:CVCL_14520 and OVCAR-5 (RRID:CVCL_1628) ovarian carcinomas, 786-O (RRID:CVCL_1051) and A498 (RRID:CVCL_A498) renal cell carcinoma, NCI-H211 (ATCC, cat. CRL-5824; RRID:CVCL_1529), NCI-H196 (ATCC, cat. CRL-5823, RRID:CVCL_1509), SW 1271 (ATCC, cat. CRL-2177, RRID:CVCL_1716) and NCI-H1876 (ATCC, cat. CRL-5902, RRID:CVCL_1503) small cell lung carcinomas, MDA-MB-231 (RRID:CVCL_0062) and MDA-MB-468 (RRID:CVCL_0419)breast carcinomas (10-12). Pooled donor human umbilical vein endothelial cells (HUVEC, Lonza, cat. CC-2519) and human mesenchymal stem cells (hMSC, Lonza, cat. PT-2501) were purchased from Lonza (Walkersville, MD).
Cell Culture. All cells were maintained in an incubator at 37 degrees C and 5% CO2 with 95% humidity. The PDC lines were cultured according to standard operating procedures established by the NCI PDMR (https://pdmr.cancer.gov). Briefly all PDCs were thawed and cultured in Matrigel-coated flasks prepared with a working solution of 1X Ham's F-12 nutrient mix, without supplementation (Invitrogen, Waltham, MA, cat. 11765054), 100 U/mL penicillin-streptomycin (Invitrogen, cat. 15140122), and 2.5% Matrigel (Corning Inc., Corning, NY, cat. 354248) for the first three passages. […]

[1] = curve of first compound, second compound 0.1 µM
[2] = curve of first compound, second compound 0.316 µM
[3] = curve of first compound, second compound 1 µM
[4] = curve of first compound, second compound 3.16 µM
[5] = curve of first compound, second compound 10 µM
[6] = second compound 0.1 µM, first compound 0.00316 µM
[7] = second compound 0.1 µM, first compound 0.01 µM
[8] = second compound 0.1 µM, first compound 0.0316 µM
[9] = second compound 0.1 µM, first compound 0.1 µM
[10] = second compound 0.1 µM, first compound 0.316 µM
[11] = second compound 0.1 µM, first compound 1 µM
[12] = second compound 0.316 µM, first compound 0.00316 µM
[13] = second compound 0.316 µM, first compound 0.01 µM
[14] = second compound 0.316 µM, first compound 0.0316 µM
[15] = second compound 0.316 µM, first compound 0.1 µM
[16] = second compound 0.316 µM, first compound 0.316 µM
[17] = second compound 0.316 µM, first compound 1 µM
[18] = second compound 1 µM, first compound 0.00316 µM
[19] = second compound 1 µM, first compound 0.01 µM
[20] = second compound 1 µM, first compound 0.0316 µM
[21] = second compound 1 µM, first compound 0.1 µM
[22] = second compound 1 µM, first compound 0.316 µM
[23] = second compound 1 µM, first compound 1 µM
[24] = second compound 3.16 µM, first compound 0.00316 µM
[25] = second compound 3.16 µM, first compound 0.01 µM
[26] = second compound 3.16 µM, first compound 0.0316 µM
[27] = second compound 3.16 µM, first compound 0.1 µM
[28] = second compound 3.16 µM, first compound 0.316 µM
[29] = second compound 3.16 µM, first compound 1 µM
[30] = second compound 10 µM, first compound 0.00316 µM
[31] = second compound 10 µM, first compound 0.01 µM
[32] = second compound 10 µM, first compound 0.0316 µM
[33] = second compound 10 µM, first compound 0.1 µM
[34] = second compound 10 µM, first compound 0.316 µM
[35] = second compound 10 µM, first compound 1 µM

IC50 (curve of compound): 144 nM and 212 nM
SMILES: NS(=O)(=O)OCC1CC(n2ccc3c(NC4CCc5ccccc54)ncnc32)CC1O (stereo not given)
viability, T/C (compound 0.00949 µM): 99.2% and 89.2%
viability, T/C (compound 0.03 µM): 84.4% and 87.8%
viability, T/C (compound 0.0949 µM): 66.8% and 85.6%
viability, T/C (compound 0.3 µM): 23.5% and 34.7%
viability, T/C (compound 0.949 µM): 6.87% and 15.1%
viability, T/C (compound 3 µM): 6.08% and 15.5%

SMILES: Nc1ncn(C2CC(O)C(CO)O2)c(=O)n1 (stereo not given) + NC1CCC(NC2CC2c2ccccc2)CC1
IC50 [1]: > 1000 nM
IC50 [2]: > 1000 nM
IC50 [3]: > 1000 nM
IC50 [4]: > 1000 nM
IC50 [5]: 628 nM
viability, T/C [6]: 115%
viability, T/C [7]: 117%
viability, T/C [8]: 97.1%
viability, T/C [9]: 82.6%
viability, T/C [10]: 72.8%
viability, T/C [11]: 56%
viability, T/C [12]: 127%
viability, T/C [13]: 108%
viability, T/C [14]: 95.3%
viability, T/C [15]: 92.2%
viability, T/C [16]: 71.4%
viability, T/C [17]: 63.1%
viability, T/C [18]: 118%
viability, T/C [19]: 99%
viability, T/C [20]: 96.7%
viability, T/C [21]: 82.5%
viability, T/C [22]: 70.1%
viability, T/C [23]: 59%
viability, T/C [24]: 103%
viability, T/C [25]: 117%
viability, T/C [26]: 82.8%
viability, T/C [27]: 82%
viability, T/C [28]: 65.2%
viability, T/C [29]: 52.6%
viability, T/C [30]: 79.2%
viability, T/C [31]: 80.2%
viability, T/C [32]: 82.6%
viability, T/C [33]: 69.6%
viability, T/C [34]: 58.5%
viability, T/C [35]: 44.6%

SMILES: COc1ccc([C@@H](O)c2cc(-c3ncnc4cc(N5CCOCC5)ccc34)c(F)cc2Cl)nn1 + NC1CC1c1ccc(-c2cccc(O)c2)cc1
IC50 [1]: 3590 nM
IC50 [2]: 4960 nM
IC50 [3]: 3760 nM
IC50 [4]: 2790 nM
IC50 [5]: 2200 nM
viability, T/C [8]: 98.2%
viability, T/C [9]: 100%
viability, T/C [10]: 96.2%
viability, T/C [11]: 79.2%
viability, T/C (second compound 0.1 µM, first compound 3.16 µM): 52%
viability, T/C (second compound 0.1 µM, first compound 10 µM): 37%
viability, T/C [14]: 108%
viability, T/C [15]: 110%
viability, T/C [16]: 102%
viability, T/C [17]: 86.9%
viability, T/C (second compound 0.316 µM, first compound 3.16 µM): 56.2%
viability, T/C (second compound 0.316 µM, first compound 10 µM): 40%
viability, T/C [20]: 101%
viability, T/C [21]: 92.9%
viability, T/C [22]: 93%
viability, T/C [23]: 80%
viability, T/C (second compound 1 µM, first compound 3.16 µM): 51.7%
viability, T/C (second compound 1 µM, first compound 10 µM): 38%
viability, T/C [26]: 90.1%
viability, T/C [27]: 93.7%
viability, T/C [28]: 88.2%
viability, T/C [29]: 78.1%
viability, T/C (second compound 3.16 µM, first compound 3.16 µM): 46.3%
viability, T/C (second compound 3.16 µM, first compound 10 µM): 38.4%
viability, T/C [32]: 92.3%
viability, T/C [33]: 84.5%
viability, T/C [34]: 81.3%
viability, T/C [35]: 65.7%
viability, T/C (second compound 10 µM, first compound 3.16 µM): 41.8%
viability, T/C (second compound 10 µM, first compound 10 µM): 34.7%

SMILES: COc1cc(Nc2ncc3c(n2)-c2ccc(Cl)cc2C(c2c(F)cccc2OC)=NC3)ccc1C(=O)O + NC1CC1c1ccc(-c2cccc(O)c2)cc1
IC50 [1]: 584 nM
IC50 [2]: 638 nM
IC50 [3]: 431 nM
IC50 [4]: 588 nM
IC50 [5]: 955 nM
viability, T/C [6]: 96.3%
viability, T/C [7]: 86.8%
viability, T/C [8]: 69%
viability, T/C [9]: 65%
viability, T/C [10]: 55.5%
viability, T/C [11]: 45.4%
viability, T/C [12]: 105%
viability, T/C [13]: 94.5%
viability, T/C [14]: 77%
viability, T/C [15]: 67.1%
viability, T/C [16]: 55.4%
viability, T/C [17]: 46.4%
viability, T/C [18]: 93.3%
viability, T/C [19]: 83.6%
viability, T/C [20]: 70.3%
viability, T/C [21]: 66.9%
viability, T/C [22]: 52%
viability, T/C [23]: 42.2%
viability, T/C [24]: 89.7%
viability, T/C [25]: 86.1%
viability, T/C [26]: 68.5%
viability, T/C [27]: 66.1%
viability, T/C [28]: 56.9%
viability, T/C [29]: 44.7%
viability, T/C [30]: 84.6%
viability, T/C [31]: 77.7%
viability, T/C [32]: 67.9%
viability, T/C [33]: 72.2%
viability, T/C [34]: 56.7%
viability, T/C [35]: 49.4%

IC50 (curve of compound): < 0.949 nM
SMILES: Nc1ccn(C2OC(CO)C(O)C2(F)F)c(=O)n1 (stereo not given)
viability, T/C (compound 0.000949 µM): 10.4% and 19.8%
viability, T/C (compound 0.003 µM): 4.3% and 7%
outcome (compound 0.00949 µM): active
viability, T/C (compound 0.00949 µM): 4.25%
viability, T/C (compound 0.03 µM): 4.55% and 6.65%
viability, T/C (compound 0.0949 µM): 4.92% and 6.2%
viability, T/C (compound 0.3 µM): 6.14% and 6.43%

SMILES: COc1cc(Nc2ncc3c(n2)-c2ccc(Cl)cc2C(c2c(F)cccc2OC)=NC3)ccc1C(=O)O + NC1CCC(NC2CC2c2ccccc2)CC1
IC50 [1]: 609 nM
IC50 [2]: 480 nM
IC50 [3]: 451 nM
IC50 [4]: 233 nM
IC50 [5]: 117 nM
viability, T/C [6]: 114%
viability, T/C [7]: 97.2%
viability, T/C [8]: 80.7%
viability, T/C [9]: 68.8%
viability, T/C [10]: 57.1%
viability, T/C [11]: 44.5%
viability, T/C [12]: 116%
viability, T/C [13]: 93.2%
viability, T/C [14]: 73.2%
viability, T/C [15]: 65.9%
viability, T/C [16]: 54.1%
viability, T/C [17]: 43.7%
viability, T/C [18]: 108%
viability, T/C [19]: 91%
viability, T/C [20]: 71.8%
viability, T/C [21]: 66.9%
viability, T/C [22]: 53.9%
viability, T/C [23]: 42.5%
viability, T/C [24]: 102%
viability, T/C [25]: 82%
viability, T/C [26]: 60.3%
viability, T/C [27]: 59.1%
viability, T/C [28]: 51%
viability, T/C [29]: 40.6%
viability, T/C [30]: 80.2%
viability, T/C [31]: 64.9%
viability, T/C [32]: 53.2%
viability, T/C [33]: 56.4%
viability, T/C [34]: 46.4%
viability, T/C [35]: 39.7%
